According to patent US7417027B2, “Linear and cyclic melanocortin receptor-specific peptides” (Palatin Technologies, Inc., priority 2001, dated 2008):
Non-standard residues stand in square brackets, D forms with d. Residues, ends and D or L forms follow the SMILES beside them. *: point of attachment. dPhe(4-Cl) = N[C@H](Cc1ccc(Cl)cc1)C(=O)O; d2Nal = N[C@H](Cc1ccc2ccccc2c1)C(=O)O; Nle = CCCC[C@H](N)C(=O)O; Ahp = NCCCCCCC(=O)O; Bn = c1ccc(C*)cc1

What was measured:
[1] = target: T1, hMC5-R (Homo sapiens, UniProt P33032); experiment: Competitive inhibition binding assay, 125I-NDP-alpha-MSH, hMC5-R membranes; settings: for percent inhibition of 125I-NDP-alpha-MSH binding, MC5-R: hMC5-R membranes, 0.4 nM 125I-NDP-alpha-MSH, mean of triplicate, peptide concentration not given; for Ki: membranes, read-out: Ki MC-5 Mem
T1 construct: expressed in transfected cells

[2] = target: T2, MC4-R (Homo sapiens, UniProt P32245); experiment: Competitive inhibition binding assay, 125I-NDP-alpha-MSH, hMC4-R membranes; set-up: expressed in transfected cells; settings: for percent inhibition of 125I-NDP-alpha-MSH binding, MC4-R: hMC4-R membranes, 0.4 nM 125I-NDP-alpha-MSH, mean of triplicate, peptide concentration not given; for Ki: membranes, read-out: Ki MC-4 Mem
[3] = target: T3, hMC3-R (Homo sapiens, UniProt P41968); experiment: Competitive inhibition binding assay, 125I-NDP-alpha-MSH, hMC3-R membranes; settings: for percent inhibition of 125I-NDP-alpha-MSH binding, MC3-R: hMC3-R membranes, 0.4 nM 125I-NDP-alpha-MSH, mean of triplicate, peptide concentration not given; for Ki: membranes, read-out: Ki MC-3 Mem
T3 construct: expressed in transfected cells

[4] = target: T2, MC4-R; experiment: Functional evaluation: intracellular cAMP accumulation in HEK-293 cells expressing MC4-R (agonist/antagonist status); assay type: cell-based; set-up: expressed in transfected cells; host or cells: HEK-293; settings: with or without alpha-MSH, 1 hour at 37° C
Experimental: The Ki (nM) of certain peptides were determined, as was the agonist/antagonist status with respect to MC4-R. Functional evaluation of peptides at MC4-R was performed by measuring the accumulation of intracellular cAMP in HEK-293 cells expressing MC4-R. Antagonistic activity was determined by measuring the inhibition of α-MSH-induced cAMP levels following exposure to the compounds. Cells, suspended in Earle's Balanced Salt Solution containing 10 mM HEPES, pH 7.5, 5 mM MgCl2, 1 mM glutamine, 0.1% albumin and 0.6 mM 3-isobutyl-1-methyl-xanthine, a phosphodiesterase inhibitor, were plated in 96 well plates at a density of 0.5×10^5 cells per well. Cells were incubated with the test peptides in the presence or absence of α-MSH for 1 hour at 37° C. cAMP levels were measured by EIA (Amersham) in the cell lysates. Data analysis and EC50 values were determined using nonlinear regression analysis with Prism Graph-Pad software.

[5] = target: MC1-R (Mus musculus, UniProt Q01727); experiment: Competitive inhibition binding assay, 125I-NDP-alpha-MSH, B-16 mouse melanoma cell membranes; settings: for Ki: B-16 cells, read-out: Ki MC-1 B-16; for percent inhibition of 125I-NDP-alpha-MSH binding, MC1-R (B-16): B-16 mouse melanoma cell membranes, 0.4 nM 125I-NDP-alpha-MSH, mean of triplicate, peptide concentration not given; for MC1-R (B-16) inhibition of 125I-NDP-alpha-MSH binding: peptide conc. 1 μM
MC1-R, sequence (Q01727 whole entry): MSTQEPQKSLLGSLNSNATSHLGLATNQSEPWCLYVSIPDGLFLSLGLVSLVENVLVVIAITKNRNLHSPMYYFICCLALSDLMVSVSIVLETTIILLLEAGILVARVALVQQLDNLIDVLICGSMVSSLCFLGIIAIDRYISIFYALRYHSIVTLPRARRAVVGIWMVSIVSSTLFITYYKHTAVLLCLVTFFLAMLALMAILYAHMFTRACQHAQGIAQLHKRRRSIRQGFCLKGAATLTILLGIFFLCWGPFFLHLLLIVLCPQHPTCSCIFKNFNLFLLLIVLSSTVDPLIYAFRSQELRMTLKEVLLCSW

T2 sequence (P32245 whole entry): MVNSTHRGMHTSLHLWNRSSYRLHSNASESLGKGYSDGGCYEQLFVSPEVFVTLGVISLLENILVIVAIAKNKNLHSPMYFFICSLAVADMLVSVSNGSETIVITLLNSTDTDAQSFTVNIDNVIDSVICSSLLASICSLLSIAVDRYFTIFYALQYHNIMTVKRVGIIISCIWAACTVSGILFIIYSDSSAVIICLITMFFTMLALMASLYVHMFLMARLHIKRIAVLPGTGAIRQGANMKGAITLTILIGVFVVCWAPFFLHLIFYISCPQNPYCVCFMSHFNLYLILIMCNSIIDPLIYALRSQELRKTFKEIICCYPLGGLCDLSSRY
T3 sequence (P41968 whole entry): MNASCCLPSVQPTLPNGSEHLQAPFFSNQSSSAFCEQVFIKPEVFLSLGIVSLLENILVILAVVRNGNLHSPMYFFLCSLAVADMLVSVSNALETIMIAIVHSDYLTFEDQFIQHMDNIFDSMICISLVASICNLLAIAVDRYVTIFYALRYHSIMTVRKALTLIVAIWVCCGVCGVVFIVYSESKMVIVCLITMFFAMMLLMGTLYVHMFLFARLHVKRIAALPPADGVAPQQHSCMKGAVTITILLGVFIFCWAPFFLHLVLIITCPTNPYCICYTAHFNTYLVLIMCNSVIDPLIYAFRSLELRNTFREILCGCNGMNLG
T1 sequence (P33032 whole entry): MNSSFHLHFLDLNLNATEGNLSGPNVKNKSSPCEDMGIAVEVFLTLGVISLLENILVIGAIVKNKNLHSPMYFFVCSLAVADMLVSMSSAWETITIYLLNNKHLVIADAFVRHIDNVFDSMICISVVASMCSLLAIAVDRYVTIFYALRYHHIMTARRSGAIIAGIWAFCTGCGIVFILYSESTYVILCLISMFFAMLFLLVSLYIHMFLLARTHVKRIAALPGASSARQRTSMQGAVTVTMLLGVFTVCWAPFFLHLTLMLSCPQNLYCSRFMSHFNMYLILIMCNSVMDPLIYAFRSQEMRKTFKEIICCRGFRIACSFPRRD

Row | Molecule | percent inhibition of 125I-NDP-alpha-MSH binding, MC5-R [1] [%] | percent inhibition of 125I-NDP-alpha-MSH binding, MC4-R [2] [%] | percent inhibition of 125I-NDP-alpha-MSH binding, MC3-R [3] [%] | percent inhibition of 125I-NDP-alpha-MSH binding, MC1-R (B-16) [5] [%] | other results
1 | 7′-amino-heptanoyl-Ser(Bzl)-D-Phe(4-Cl)-Arg-2′,4′-dichlorobenzylamide | -6 |  |  |  | 
2 | 7′-amino-heptanoyl-Ser(Bzl)-D-Phe(4-Cl)-Arg-Histamide | -2 |  |  |  | 
3 | N=C(N)NCCC[C@H](NC(=O)[C@@H](Cc1ccc2ccccc2c1)NC(=O)[C@H](COCc1ccccc1)NC(=O)CCCCCCN)C(=O)N[C@@H](Cc1c[nH]c2ccccc12)C(N)=O [7′-amino-heptanoyl-Ser(Bzl)-D-Nal 2-Arg-Trp-NH2] (H-[Ahp]S(Bn)[d2Nal]RW-NH2) | 82 | 99 | 93 | 4 | Ki [2]: 4 nM; Ki [3]: 50 nM; HEK-293 (MC4-R) cells Classification [4]: Antagonist; Ki [1]: 102 nM; Ki [5]: 1870 nM
4 | 7′-amino-heptanoyl-Ser(Bzl)-D-Phe(4-Cl)-Arg-2′-(4″-methylphenyl)ethylamide |  |  | 67 |  | 
5 | 3′-CF3phenylacetyl-Ala-D-Phe(4-Cl)-Lys-Trp-NH2 | 67 |  |  |  | 
6 | Ac-[Nle]AH[dF]RW-NH2 |  |  |  |  | MC1-R (B-16) inhibition of 125I-NDP-alpha-MSH binding [5]: 101%
7 | 4′-biphenyl-acetyl-Ala-D-Phe(4-Cl)-Arg-Trp-NH2 | 37 | 88 | 54 | 0 | 
8 | 3′,4′-Cl2phenylacetyl-Ala-D-Phe(4-Cl)-Lys-Trp-NH2 |  |  |  | 45 | 
9 | 2′-naphthylacetyl-D-Phe(4-Cl)-Arg-Trp-NH2 | 58 |  |  |  | 
10 | 7′-amino-heptanoyl-Ser(Bzl)-D-Phe(4-Cl)-Arg-Trp-Asp-OH |  | 67 |  |  | 
11 | N=C(N)NCCC[C@H](NC(=O)[C@@H](Cc1ccc(Cl)cc1)NC(=O)[C@H](COCc1ccccc1)NC(=O)CCCCCCN)C(=O)N[C@@H](Cc1c[nH]c2ccccc12)C(=O)N[C@@H](CC(=O)O)C(N)=O [7′-amino-heptanoyl-Ser(Bzl)-D-Phe(4-Cl)-Arg-Trp-Asp-NH2] (H-[Ahp]S(Bn)[dPhe(4-Cl)]RWD-NH2) | 48 | 98 | 73 |  | Ki [2]: 9 nM; Ki [3]: 191 nM; HEK-293 (MC4-R) cells Classification [4]: Agonist; Ki [1]: 596 nM; Ki [5]: 760 nM
12 | N=C(N)NCCC[C@H](NC(=O)[C@@H](Cc1ccc2ccccc2c1)NC(=O)[C@H](COCc1ccccc1)NC(=O)CCCCCCN)C(=O)N[C@H](Cc1c[nH]c2ccccc12)C(N)=O [7′-amino-heptanoyl-Ser(Bzl)-D-Nal 2-Arg-D-Trp-NH2] (H-[Ahp]S(Bn)[d2Nal]R[dW]-NH2) | 82 | 100 | 86 | -8 | Ki [2]: 6 nM; Ki [3]: 70 nM; HEK-293 (MC4-R) cells Classification [4]: Antagonist; Ki [1]: 90 nM; Ki [5]: 1300 nM
13 | 7′-amino-heptanoyl-Ser(Bzl)-D-Phe(4-Cl)-alpha-(N-amidino-4′-piperidine)Gly-Trp-NH2 | 16 | 26 | 8 | 3 | 
14 | 2′-naphthylacetyl-Tle-D-Phe(4-Cl)-Arg-Trp-NH2 |  |  |  | 67 | 
15 | 7′-amino-heptanoyl-Ser(Bzl)-D-Phe(4-Cl)-Arg-Trp-OH |  | 67 |  |  | 
16 | 3′,4′-Cl2phenylacetyl-Ala-D-Phe(4-Cl)-Arg-2′-(4″-methylphenyl)ethylamide | -6 |  |  |  | 
17 | 2′-naphthylacetyl-beta-Ala-D-Nal 2-Arg-Trp-NH2 |  |  | 58 |  | 
18 | 2′-naphthylacetyl-Ala-D-Phe(4-Cl)-Arg-Trp-NH2 |  |  |  | 45 | 
19 | N=C(N)NCCC[C@H](NC(=O)[C@@H](Cc1ccc(Cl)cc1)NC(=O)[C@H](COCc1ccccc1)NC(=O)CCCCCCN)C(=O)N[C@@H](Cc1c[nH]c2ccccc12)C(=O)N[C@@H](CC(=O)O)C(=O)N[C@@H](Cc1ccccc1)C(N)=O [7′-amino-heptanoyl-Ser(Bzl)-D-Phe(4-Cl)-Arg-Trp-Asp-Phe-NH2] (H-[Ahp]S(Bn)[dPhe(4-Cl)]RWDF-NH2) | 54 | 100 | 37 | 34 | Ki [2]: 12 nM; Ki [3]: 318 nM; HEK-293 (MC4-R) cells Classification [4]: Agonist; Ki [1]: 386 nM; Ki [5]: 269 nM
20 | 7′-amino-heptanoyl-Ser(Bzl)-D-Phe(4-Cl)-Arg-4-phenyl-piperidine-4-carbonamide | 25 | 13 | 2 | 5 | 
21 | 3′-CF3phenyl-acetyl-Ala-D-Phe(4-Cl)-Arg-Trp-NH2 |  |  | 101 |  | 
22 | 7′-amino-heptanoyl-Ala-D-Phe(4-Cl)-Arg-Trp-NH2 |  |  |  | 58 | 
23 | Ac-[Nle]AH[dF]RCW-NH2 |  |  |  |  | MC1-R (B-16) inhibition of 125I-NDP-alpha-MSH binding [5]: 101%
24 | 2′-naphthylacetyl-Inp-D-Phe(4-Cl)-Arg-Trp-NH2 |  | 58 |  |  | 
25 | Ac-[Nle]AH[dF]RWC-NH2 |  |  |  |  | MC3-R inhibition of 125I-NDP-alpha-MSH binding ([3]; peptide conc. 1 μM): 58%
26 | 7′-amino-heptanoyl-Ser(Bzl)-D-Phe(4-Cl)-Arg-Tic-NH2 |  |  |  | 45 | 
27 | Ph-(CH2)2NH-CO(CH2)2CO-D-Phe(4-Cl)-Arg-Trp-NH2 |  |  |  | 67 | 
28 | 4′-phenylbutylaminocarbonyl-D-Phe(4-Cl)-Arg-Trp-NH2 |  | 45 |  |  | 
